Experimental data: patent publication US20180153830A1, “SELECTIVE INHIBITORS OF UNDIFFERENTIATED CELLS” (Yissum Research Development Company of the Hebrew …, priority 2012, published 2018)

How the values were obtained:
[1] = test system: spliced isoform sXBP1 in human ES cells; assay: sXBP1 quantitative PCR, ES cells; assay type: cell-based; conditions: 20 μM PluriSIn #1 (12 hours) or 100 nm A939572
[2] = test system: protein synthesis in H9 embryonic stem cells; assay: 35S-Met metabolic labeling of protein synthesis, ES cells; assay type: cell-based, human; conditions: 12 hours; 20 μM PluriSIn #1 or 100 nm A939572
Description: H9 embryonic stem cells were seeded in Matrigel™ pre-coated 6-well tissue culture plates at a density of 2×10^5 cells/well, and cultured using mTeSR1 defined medium. BJ fibroblasts were seeded in 6-well tissue culture plate at the same density, and cultured with DMEM supplemented with 10% FBS, penicillin (50 U/ml) and streptomycin (50 μg/ml). Cells were treated for 12 hours with either 20 μM PluriSIn #1 (isonicotinic acid N′-phenylhydrazide) or with 0.2% DMSO. Cells were then washed with PBS, and replenished with methionine-deficient medium for 1 hour. Metabolic labeling of the cells was then performed for 1 hour with 10 μCi of […] methionine in 1 ml/well, in the presence of 20 μM PluriSIn #1 or 0.2% DMSO. Cells were washed with PBS containing 10 mM methionine, and were then lysed in 0.4 ml of 30% ice-cold trichloroacetic acid (TCA) containing 10 mM methionine for 15 minutes. […] Total protein concentration was determined using a Bradford Protein Assay (Sigma-Aldrich), and the radioactivity measurements were normalized accordingly. […]
The similarity between PSIs and PluriSIn #1 and #6 is consistent with the fact that UPR can lead to translational attenuation. In order to confirm this link, the effect of PluriSIn #1 treatment on protein synthesis was determined. […]

[3] = test system: undifferentiated CSES2-SO2/3 embryonic stem cells; assay: Fluorescence microscopy imaging of undifferentiated CSES2-SO2/3 cells; assay type: cell-based, human; conditions: for effect on undifferentiated cells: 24 hours of exposure
Description: High content imaging of CSES2-SO2/3 fluorescent cells (mCherry+ or EGFP+) was performed in black clear-bottom 384-well assay plates (Falcon BD), using the Opera high-content screen imaging platform (PerkinElmer). Otherwise, light and fluorescence imaging of all cells was performed in 24-well, 6-well or 10 cm CELLSTAR® plates (Greiner Bio-One), using an Olympus CellR imaging station. Light imaging of developing mouse embryos was performed in 35 mm culture dishes (Falcon BD), using an Olympus IX70 microscope.
CSES2-SO2/3 is a genetically-labeled cell line that expresses mCherry under the promoter of the pluripotency hallmark gene OCT-4, and GFP under the promoter of the early endodermal marker SOX17. Therefore, these cells are red while undifferentiated, and become green upon their differentiation into the endodermal lineage [Kopper & Benvenisty, Stem Cell Research 8:335-345 (2011)]. Green early endodermal progenitor cells were generated from the red undifferentiated cells, using an 8-day differentiation protocol as described by Duan et al. [Stem Cells 28:674-686 (2010)].
In order to further verify the selectivity of the PluriSIns, and rule out any potential assay-related interference, undifferentiated and differentiated CSES2-SO2/3 cells were subjected to microscopy imaging after 24 hours of exposure to PluriSIns.

embryonic stem cells = assay: Annexin V-FITC apoptosis detection (FACS); assay type: cell-based, human; conditions: for apoptosis of undifferentiated cells: 18 hours, 20 μM PluriSIn #1 or 100 nm A939572
Description: For quantification of apoptosis, an Annexin V-FITC Apoptosis Detection Kit (eBioscience) was used. […] Dissociated cells were suspended at a final concentration of 2-5×10^5 cells/ml, and treated according to the manufacturer's instructions. Analysis was performed using LSR II FACS with FCS Express software.
The finding of gene expression associated with apoptosis is consistent with previous reports that pluripotent cells are prone to apoptosis [Qin et al., Journal of Biological Chemistry 282:5842-5852 (2007); Momcilovic et al., PloS One 5:e13410 (2010)]. However, pluripotent cells have also been reported to be susceptible to other types of cell death, such as oncosis [Tan et al., Stem Cells 27:1792-1801 (2009)] and autophagy [Alexander et al., PNAS 108:15828-15833 (2011)]. An Annexin V-FITC detection assay and immunoblotting for caspase-3 (a hallmark executioner of apoptosis) were therefore used in order to confirm that the massive hPSC death induced by PluriSIn #1 is indeed apoptosis.

Structure (SMILES) | increase in expression of spliced isoform sXBP1, ES cells [1] | decrease in protein synthesis, ES cells [2] | effect on undifferentiated cells [3] | effect on undifferentiated cells in a mixture of differentiated and undifferentiated cells ([3]; mixture of CSES2-SO2/3 ES and derived differentiated cells) | increase in number of apoptotic cells (embryonic stem cells; 20 μM, 16 hours post-treatment) | apoptosis of undifferentiated cells (embryonic stem cells)
O=C(NNc1ccccc1)c1ccncc1 [PluriSIn #1, isonicotinic acid N′-phenylhydrazide] | approximately 3.5 fold | approximately 30% | eliminated undifferentiated cells | also eliminated undifferentiated cells | approximately 7 fold | enhanced apoptosis
Cc1ccc(NNC(=O)C(O)(c2ccccc2)c2cccs2)cc1 (stereo not shown) [PluriSIn #6, 2-hydroxy-2-(thiophen-2-yl)-2-phenylacetic acid 4-methyl-N′-phenylhydrazide] |  |  | eliminated the red undifferentiated cells |  |  | 
CNC(=O)c1cccc(NC(=O)N2CCC(Oc3ccccc3Cl)CC2)c1 [A939572, 4-(2-chlorophenoxy)-N-(3-(methylcarbamoyl)-phenyl)piperidine-1-carboxamide, reference compound] | approximately 2 fold | approximately 50% |  |  |  | enhanced apoptosis
